In patent US20020115724A1, “Methods and agents for inhibiting protein aging” (priority 1985, published 2002):
Counter-ions that a name gives are not always drawn.

What was measured:
[1] = system: calf skin collagen; test: Calf skin collagen crosslinking by glucose: cyanogen bromide fragments on SDS-polyacrylamide gel; assay type: biochemical; conditions: 140 mM glucose, 200 mM aminoguanidine, 3 weeks, 35° C.; Lane B
Procedure: Collagen from samples of calf skin were extracted into acetic acid and then precipitated with 0.6 M sodium chloride. These procedures removed from the solution skin collagen that was already permanently crosslinked or denatured. Native collagen fibrils were reformed by dialysis against 0.02M phosphate buffer, and these were incubated for 3 weeks at 35° C. in the presence of 140 mM glucose and with or without 200 mM aminoguanidine. After incubation, the samples were dialyzed and the degree of crosslinking was determined by two methods. First, the amount of reacted collagen which could be solubilized by treatment in 2% sodium dodecyl sulfate at 100° C. was measured.
The reacted collagen was further examined by cleaving it into fragments using cyanogen bromide treatment in formic acid, the resulting protein fragments were separated by size by sodium dodecyl sulfate-polyacrylamide gel electrophoresis. After electrophoresis, the protein fragments were identified in the gel using silver staining.
Referring to FIG. 3B, Lane C contains collagen that was incubated with glucose alone. It is noted that a large amount of high molecular weight fragments form a continuous band at the top of the gel, indicating a large range of high molecular weight fragments. Some of this material could not enter the gel and is present in the […] stacking gel above the gradient gel. […]

[2] = system: normal and diabetic rats; test: IgG bound to glomerular basement membranes, enzyme immunoassay; assay type: in vivo, rat; conditions: 25 mg/kg daily intraperitoneal, 16 weeks
Procedure: To measure the level of advanced glycosylation end products in vivo, the kidneys of rats were examined for serum proteins which had become attached to glomerular basement membranes. This was determined to be a good model in which to study this process as it is known that significant kidney pathology occurs in untreated diabetes as a result of the buildup of extravasated plasma protein in the extravascular matrix in this organ.
(§1) The experiment consisted of giving both normal and diabetic rats daily intraperitoneal doses of the agent aminoguanidine hydrochloride at a dose of 25 mg per kilogram of body weight, for a period of 16 weeks. […] Diabetes was induced prior to drug therapy with a single dose of streptozotocin. Control animals, both diabetic and normal, received no drug.
At the end of the agent therapy, animals were sacrificed and the kidneys were removed. Each organ was removed from its capsule and the medulla was removed. […]
After overnight incubation to allow the antibody to bind to any IgG crosslinked to the glomerular basement membranes, the membranes were pelleted by centrifugation at 3200 rpm for five minutes and were washed free of the unbound antibody-enzyme conjugate with four rinses with PBS plus Tween followed by three rinses with distilled water. […] The reaction was stopped with the addition of 0.2 mL of M sodium hydroxide, and the absorbance at 400 nm was measured.

[3] = system: normal and diabetic rats; test: Aorta advanced glycosylation endproduct content (specific fluorescence of collagen); assay type: in vivo, rat; conditions: for Advanced glycosylation products: aorta, 25 mg/kg daily i.p., 16 weeks
Procedure: as §1
(§2) Aorta samples from the same groups of animals described in Example IV above were subjected to analysis for Advanced Glycosylation Endproducts (A.G.E.) content and solubility.
(§3) Aortas were finely minced with dissecting scissors, delipidated with 5 mL of chloroform: methanol (2:1), washed 5 times with buffer, and divided into aliquots for the following assessments of cross-linking:
(A) Specific fluorescence of collagen after complete solubilization by proteinase k and pepsin.
(§4) After treatment for the prescribed period, soluble material was separated from insoluble material by centrifugation (50,000× g, 1 hour), and all fractions were lyophilized and hydrolyzed in 6M HCl for determination of total hydroxyproline.

[4] = system: normal and diabetic rats; test: Aorta collagen solubility (acetic acid, CNBr, pepsin); assay type: in vivo, rat; conditions: 25 mg/kg daily i.p., 16 weeks
Procedure: as §1, §2, §3
(B) Solubility in 0.5M acetic acid was determined after 2 hours of extraction at 25° C. and 24 hours at 4° C.
(C) Solubility after cyanogen bromide cleavage at 30° C. for 18 hours was determined.
(D) Solubility after degradation by pepsin (1.0 mg/mL) in 0.1 M acetate buffer, pH 4.1, at 37° C. for 48 hours.
as §4

[5] = system: Streptozotocin-diabetic male Lewis rats; test: Tail tendon collagen solubility (pepsin), streptozotocin-diabetic rats; assay type: in vivo, rat; conditions: 9 months; for Collagen Solubility: tail tendon
Procedure: Streptozotocin-diabetic male Lewis rats were treated for a 9-month time period with daily doses of aminoguanidine hydrochloride of 0, 6.25, 12.5, 25, and 50 mg/kg/day. After the treatment period, collagen in tail tendon fiber was subjected to solubility determination. Ten mg samples were incubated with gentle rocking for 5 hours at 4° C. in 5 ml of 0.5M acetic acid containing 1 mg pepsin. The samples were then centrifuged at 50,000× g for 1 hour, and the soluble and insoluble fraction separated by decanting. Each fraction was hydrolyzed in 6N HCl and total hydroxyproline measured.

[6] = system: diabetic rats; conditions: cited from earlier work

N=C(N)NN [aminoguanidine hydrochloride]
high molecular weight fragments after cyanogen bromide cleavage (gel) [1]: no large amount of high molecular weight material
IgG bound to glomerular basement membranes ([2]; diabetic rats): the same low level of IgG in normal animals
IgG bound to glomerular basement membranes ([2]; normal rats): about the same low level
Advanced glycosylation products ([3]; diabetic rats): 4.5 ± 0.1 Specific fluorescence per mg hydroxyproline
Advanced glycosylation products ([3]; normal rats): 2.8 ± 0.1 Specific fluorescence per mg hydroxyproline
level of fluorescent advanced glycosylation products in aortic tissue relative to untreated normal rats ([3]; treated diabetic rats vs untreated normal rats): 1.3 times
Percent collagen solubilized by 0.5 M acetic acid ([4]; diabetic rats): 12.6 ± 0.3%
Percent collagen solubilized by CNBr ([4]; diabetic rats): 10.6 ± 0.1%
Percent collagen solubilized by Pepsin ([4]; diabetic rats): 46.1 ± 0.4%
Percent collagen solubilized by 0.5 M acetic acid ([4]; normal rats): 18.7 ± 0.3%
Percent collagen solubilized by CNBr ([4]; normal rats): 13.6 ± 0.3%
Percent collagen solubilized by Pepsin ([4]; normal rats): 52.5 ± 0.2%
prevention of the diabetes-induced fall in tail tendon collagen solubility ([5]; 6.25 up to 50 mg/kg/day orally): significantly prevented this change in a dose-dependent manner
prevention of the diabetes induced cross-linking ([5]; highest dose (50 mg/kg/day orally)): 80%
Collagen Solubility ([5]; Diabetic, 12.5 mg/kg/day): 66.7 ± 1.2%
Collagen Solubility ([5]; Diabetic, 50 mg/kg/day): 75.9 ± 0.4%
Collagen Solubility ([5]; Normal, 50 mg/kg/day): 88.2 ± 0.2%
kidney glomerular basement membrane protein crosslinking [6]: diminishes kidney glomerular basement membrane protein crosslinking in diabetic rats
